Assay results taken from article PMC5882690, “Mechanical characteristics of beta sheet-forming peptide hydrogels are dependent on peptide sequence, concentration and buffer composition” (Royal Society Open Science, 2018).
Where a SMILES comes first, the peptide text is derived from it. [ ]: non-standard residue; d: D form. Orn = NCCC[C@H](N)C(=O)O

How the values were obtained:
[1] = biological target: T1, human neutrophil elastase (Homo sapiens, UniProt P08246); test: SAP hydrogel degradation by human neutrophil elastase; format: in vitro ADME; details: human neutrophil elastase 100 µg ml^-1 (86 units ml^-1) in PBS, 37°C, 5% CO2, 20 mg ml^-1 P11-4, 15 mg ml^-1 others, Qubit Protein Assay, mean ± SD, n = 3
T1 construct: purchased Innovative Research, USA
T1 sequence (P08246 30-267): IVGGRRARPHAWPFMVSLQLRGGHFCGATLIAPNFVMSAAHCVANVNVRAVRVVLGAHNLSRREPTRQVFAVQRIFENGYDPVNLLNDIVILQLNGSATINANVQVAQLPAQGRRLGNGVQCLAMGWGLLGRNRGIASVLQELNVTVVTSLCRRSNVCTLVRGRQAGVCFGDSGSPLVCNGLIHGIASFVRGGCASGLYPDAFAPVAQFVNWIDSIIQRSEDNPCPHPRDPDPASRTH
Method: SAP hydrogel dissolution and degradation properties of the peptides in the presence and absence of neutrophilic elastase and microorganisms were measured by determining the peptide content of the supernatant. Therefore, SAPs were assembled in PBS at concentrations of 20 mg ml^−1 for P11-4 and 15 mg ml^−1 for P11-8, P11-13/14 and P11-28/29. The assay was performed in a 96-well plate with gel volumes of 100 µl well^−1. 86 units ml^−1 elastase (Innovative Research, USA) (100 µg ml^−1) were added to the assembled peptides in PBS solution. After 24 h incubation at 37°C and 5% CO2, 10 µl of the supernatant was sterilely removed after 24 and 168 h and measured indirectly by monomeric peptide concentration in the supernatant using the Qubit® Protein Assay (Q33211; Thermo Fisher; fluorescence at 485/590 nm) and transferred back for the remainder of the experiment allowing peptide hydrogel degradation measurement without disturbing the hydrogel to buffer fluid balance. The measurements are based on the fact that degraded peptides cause disassembly of the fibrils, as assembly rules are no longer given, resulting in an increase in monomeric SAP in solution. SAP concentrations were calculated based on respective peptide standard curves. For data analysis, SAP concentrations measured in the supernatant were calculated as a percentage of the specific starting concentrations of each peptide system. Statistical analysis was done using a two-way ANOVA followed by Sidak's multiple comparison test.

[2] = cited from earlier work
Text: The topographical structure of SAP hydrogels is important for the three-dimensional arrangement of cells within scaffolds. Zhang et al. state that the fibres of SAP hydrogels resemble the nanometre scale of natural polymer networks and thus allow three-dimensional cell growth. […] (figure 1). […] Moreover, they observed the formation fibre entanglements with diameters of 30 nm. The phenomenon of fibril clustering was also reported by Zhang et al. for the peptides KFE8 and KLD12, characterized by a typical single fibre width of 7 nm and thicker diameters for the bundles of fibres.

CC(=O)N[C@@H](CCC(N)=O)C(=O)N[C@@H](CCC(N)=O)C(=O)N[C@@H](CCCNC(=N)N)C(=O)N[C@@H](Cc1ccccc1)C(=O)N[C@@H](CCCN)C(=O)N[C@@H](Cc1c[nH]c2ccccc12)C(=O)N[C@@H](CCCN)C(=O)N[C@@H](Cc1ccccc1)C(=O)N[C@@H](CCC(=O)O)C(=O)N[C@@H](CCC(N)=O)C(=O)N[C@@H](CCC(N)=O)C(N)=O [P11-8, CH3CO-QQRFOWOFEQQ-NH2] (Ac-QQRF[Orn]W[Orn]FEQQ-NH2)
relative peptide amount in supernatant (% of peptide starting concentration) ([1]; 1 d): 10.4± 3.9%
relative peptide amount in supernatant (% of peptide starting concentration) ([1]; 7 d): 10.4± 1.3%

KLD12 [reference compound]
typical single fibre width ([2]; literature): 7 nm

RADA16 [reference compound]
fibre diameter ([2]; literature value): approximately 10 nm
